# Laboratory results taken from US7691874B2, “Neuroprotective properties of dextrorotatory morphinans” (priority 2004, dated 2010).
# Marks after values point to notes of the source that are not given here.
# Legend:
# MA-treated mice [1] = assay: Striatal dopamine and metabolites in MA-treated mice; assay type: in vivo; details: for Concentration DA in the striatum: 3 days after final MA
# Excerpt: Mice were sacrificed at 3 days after final MA injection.
# σ1 receptors = σ1 receptors (Homo sapiens, UniProt Q99720); details: cited from earlier work
# LPS-treated mice [2] = assay: Striatal dopamine and metabolites in LPS-treated mice; assay type: in vivo; details: for Concentration DA in the striatum: 3 weeks after LPS
# Excerpt: (§1) Control animals received striatal injection with PBS.
# Mice were sacrificed at 3 weeks after LPS treatment.
# MA-treated mice [3] = assay: MA-induced FRA-IR in the striatum; details: morphinan 20 mg/kg i.p.; MA 1 mg/kg i.p./day x 7
# Description: Therefore, brains were removed and used for immunocytochemical analysis at 18 h after the final cocaine/MA treatment. The coronal sections containing striatum were processed for FRA immunocytochemistry. […] The FRA antibody was used at 1:2,000 as the optimal dilution. The FRA-IR in the striatum was calculated using image analysis systems with a polaroid digital microscopic camera (Optimas version 6.2).
# LPS-treated mice [4] = assay: Nigral TH-IR in LPS-treated mice; assay type: in vivo; details: 24 mg/kg i.p.
# Excerpt: FIGS. 8A-8B. […] Magnification=40×.
# as §1
# [5] = tested on: kainate or maximal electric shock; details: kainate (24) or maximal electric shock (27); cited from earlier work
# cocaine-treated mice [6] = assay: Cocaine-induced hyperlocomotion; assay type: in vivo
# Description: FIGS. 34A-34B show effect of morphinans on the cocaine-induced hyperactivity in the mice. Morphinans (15 and 30 mg/kg, i.p.) were administered 30 minutes prior to cocaine (5 and 20 mg/kg, i.p.). Central activity means relatively non-specific locomotor activity in the center of the box. Marginal activity means circling behaviors. All treatments were performed for 7 days.
# FIGS. 35A-35D show effect of dimemorfan (DF) on cocaine-induced hyperactivity in the mice. DF (20 mg/kg, i.p.) was administered 30 minutes prior to cocaine (5 and 20 mg/kg, i.p.). All treatments were performed for 7 days.
# MA-treated mice [7] = assay: Hypokinesia induced by MA; assay type: in vivo; details: 12 and 24 mg/kg; 3 days after final MA
# MA-treated mice [8] = assay: MA-induced hyperlocomotion; assay type: in vivo; details: morphinan 20 mg/kg i.p. 30 min before MA 1 mg/kg i.p./day x 7
# Description: FIGS. 39A-39D show effect of morphinans on the MA-induced hyperactivity in the mice. Each morphinan (20 mg/kg, i.p.) was administered 30 minutes prior to MA (1 mg/kg, i.p.). All treatments were performed for 7 days.
# C57 BL/6 mice [9] = assay: Locomotor activity and locomotor pattern following repeated administration of morphinans or PCP; assay type: in vivo
# MPTP-treated mice [10] = assay: Hypokinesia (reduction in locomotor activity) induced by MPTP; assay type: in vivo; details: 12 or 24 mg/kg i.p. 30 min before MPTP (20 mg/kg/day x 7), last three days
# MPTP-treated mice [11] = assay: Striatal dopamine and metabolites (HPLC-EC) in MPTP-treated mice; details: for Concentration DA in the striatum: mean ± S.E.M., 8 animals
# Description: (§2) Each morphinan was administered 30 min prior to every injection of MPTP for last three days (from day 4th to day 7th). Animals were sacrificed 24 h after the last MPTP treatment.
# Brains were rapidly removed and cut into 1 mm coronal sections on ice. The striatum was punched using a fine pasteur pipette (3, 21, 22), and stored at −70° C. DA and its metabolites, 3,4-dihydroxyphenylacetic acid (DOPAC) and homovanilic acid (HVA) were measured by HPLC-eletrochemical detection (3, 21, 22). Briefly, the striatum was homogenized in 0.2 M perchloric acid containing 3,4-dihydroxybenzylamine as an internal standard (10 mg wet weight of tissue per ml). The homogenate was centrifuged and a 20-μl aliquot of the supernatant was injected into the HPLC equipped with an ODS-C18 column. The mobile phase was comprised of 26 ml of acetonitrile, 21 ml of tetrahydrofuran and 960 ml of 0.15 M monochloroacetic acid (pH 3.0) containing 50 mg/l of EDTA and 200 mg/l of sodium octyl sulfate. The amount of DA, DOPAC and HVA were determined by comparison of peak height ratio of tissue sample with standards, and were expressed in nanograms per 100 mg of wet weight of tissue.
# Each morphinan was administered 30 min before every injection of MPTP for last three days. Animals were sacrificed at 24 h after the last MPTP injection.
# [12] = tested on: NMDA receptor associated PCP sites; details: cited from earlier work
# MA-treated mice [13] = assay: MA-induced behavioural sensitization; details: morphinan 20 mg/kg i.p., last 3 days of wash-out (Ex. 3.12)
# Description: Morphinans (20 mg/kg, i.p.) were administered last 3 days of wash-out period.
# LPS-treated mice [14] = assay: Hypokinesia induced by intrastriatal LPS; details: 12 or 24 mg/kg, twice before bilateral intrastriatal LPS
# Description: Male mice were anesthetized with chloral hydrate (200 mg/kg, i.p.) and positioned in a small-animal stereotaxic apparatus. […] LPS (2 μg in a volume of 2 μl of PBS) was injected into both sides of the striatum over a period of 2 min, and the injection needle was kept in place for 2 min after the injection. Control animals received striatal injection with PBS.
# Ten min after the last treatment with each drug, locomotor activity was measured for 30 min. After measuring the locomotor activity (i.e. 40 min after the last drug injection), the ‘absolute turn angular’ was analyzed in a 3-min monitoring period using an automated video-tracking system (Noldus Information Technology, Wagenin, The Netherlands) to examine locomotor patterns. […] Eight test boxes (40×40×30 cm high) were operated simultaneously by an IBM computer. Animals were studied individually during locomotion in each test box, where they were adapted for 10 min before starting the experiment. […] The distance traveled in cm by the animals in horizontal locomotor activity was analyzed (13, 25, 27). Data were collected and analyzed between 0900 and 1700 hr.
# MPTP-treated mice [15] = assay: Nigral tyrosine hydroxylase-like immunoreactivity in MPTP-treated mice; details: 24 mg/kg i.p.
# Description: as §2
# MA-treated mice [16] = assay: Methamphetamine (MA)-induced hyperthermia; assay type: in vivo; details: 24 mg/kg; MA 7.5 mg/kg i.p. x 4 at 2-h intervals
# Description: Rectal temperature was recorded at 40 min after each MA treatment. […] Mice were sacrificed at 3 days after final MA injection.
# FIGS. 10A-10B show effect of morphinans on the methamphetamine (MA)-induced hyperthermia. Mice received i.p. injections of MA (four injections of 7.5 mg/kg each) at 2-h intervals under the ambient temperature of 22.0±0.5° C. Temperatures were recorded at 40 min after each MA treatment (Arrow=MA injection).
# C57 BL/6 mice [17] = assay: Conditioned place preference (psychological dependence) following repeated administration of morphinans or PCP; assay type: in vivo; details: 20 or 40 mg/kg i.p. (PCP 2.5 or 5 mg/kg); vs saline
# Description: On day 14, the guillotine doors were raised. […] Data were analyzed between 0900 and 1700 hr.
# MA-treated mice [18] = assay: Nigral TH-IR in MA-treated mice; details: 24 mg/kg i.p.
# cocaine-treated mice [19] = assay: Cocaine-induced Fos-related antigen-immunoreactivity (FRA-IR) in the striatum; details: cocaine 5 mg/kg; morphinan 20 mg/kg i.p.
# LPS-treated mice [20] = assay: LPS model, HM versus L-dopa/carbidopa: nigral TH-IR; details: mouse, in vivo
# Excerpt: FIG. 27 show effects of carbidopa, L-dopa, carbidopa+L-dopa and HM on the nigral tyrosine hydroxylase-like immunoreactivity (TH-IR) of the mice treated with LPS.
# MA-treated mice [21] = assay: MA model, HM versus L-dopa/carbidopa: hyperthermia; assay type: in vivo; details: MA 7.5 mg/kg i.p. x 4
# Description: FIGS. 31A-31B show effect of drugs on the MA-induced hyperthermia. Mice received MA injections as 2 hrs' time interval under the ambient temperature of 22.0±0.5° C.
# Experimental paradigm for MA with or without compounds is in FIG. 30. Treatment with MA (7.5 mg/kg, i.p.×four times as two hour time interval) produces hyperthermia (P<0.01).
# MPTP-treated mice [22] = assay: MPTP model, HM versus L-dopa/carbidopa: locomotor activity; assay type: in vivo; details: HM 24 mg/kg i.p., L-dopa 200 mg/kg p.o., carbidopa 20 mg/kg p.o., 2 weeks before MPTP
# Description: FIGS. 20A-20B show effects of carbidopa, L-dopa, carbidopa+L-dopa and HM on the changes in locomotor activity (A) and locomotor pattern (B) induced by MPTP in mice.
# A prescription drug for treating Parkinsonian patients is L-dopa or carbidopa plus L-dopa. Thus, the neuroprotective effects of HM was compared with L-dopa, carbidopa, or carbidopa plus L-dopa. […] Locomotor activity was examined for 60 min after final treatment of MPTP. Mice were sacrificed at 24 h after final MPTP administration. HM (24 mg/kg, i.p.), L-dopa (200 mg/kg, p.o.) with or without carbidopa (20 mg/kg, p.o.) was administered for 2 weeks before first MPTP challenge.
# LPS-treated mice [23] = assay: LPS model, HM versus L-dopa/carbidopa: mortality; assay type: in vivo; details: intrastriatal LPS 2 μg x 4/head; 2 weeks
# Description: Mortality was observed by 2 weeks after LPS injection. *P<0.01 vs. Saline+LPS (x^2-test).
# The neuroprotective effect of HM was compared with L-dopa, carbidopa, or carbidopa plus L-dopa in response to dopaminergic damage induced by LPS. Intrastriatal injection of LPS (2 μg×4/head) produced high mortality (ten animals died out of twelve animals in the 2 weeks after LPS administration).
# LPS-treated mice [24] = assay: LPS model, HM versus L-dopa/carbidopa: microglia F4/80-like immunoreactivity; assay type: in vivo; details: substantia nigra
# σ1 receptors, sequence (Q99720 whole entry): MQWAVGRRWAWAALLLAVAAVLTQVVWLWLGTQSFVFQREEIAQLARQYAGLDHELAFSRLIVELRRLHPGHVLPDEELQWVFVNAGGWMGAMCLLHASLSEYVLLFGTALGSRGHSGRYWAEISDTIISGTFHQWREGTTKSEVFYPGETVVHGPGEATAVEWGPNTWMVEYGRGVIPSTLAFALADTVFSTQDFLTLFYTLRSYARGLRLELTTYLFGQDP
smiles,measurement,setting,value
"CN1CC[C@]23CCCC[C@H]2[C@H]1Cc1ccc(OCC2CC2)cc13 [CM, 3-cyclopropylmethoxy-17-methylmorphinan]","effect on MA-induced reductions in striatal DA, DOPAC and HVA",MA-treated mice [1]; 24 mg/kg pretreatment,significantly protected
same,Concentration DOPAC in the striatum,MA-treated mice [1]; morphinan 12 (mg/kg) + MA,82 ± 10 ng/100 mg wet tissue
same,Concentration HVA in the striatum,MA-treated mice [1]; morphinan 12 (mg/kg) + MA,83 ± 9 ng/100 mg wet tissue
same,Concentration DA in the striatum,"MA-treated mice [1]; morphinan 12 (mg/kg) + MA, mean ± S.E.M., 8 animals",668 ± 81 ng/100 mg wet tissue
same,Concentration DOPAC in the striatum,MA-treated mice [1]; morphinan 24 (mg/kg) + MA,99 ± 10^b ng/100 mg wet tissue
same,Concentration HVA in the striatum,MA-treated mice [1]; morphinan 24 (mg/kg) + MA,94 ± 12^b ng/100 mg wet tissue
same,Concentration DA in the striatum,MA-treated mice [1]; morphinan 24 (mg/kg) + MA,777 ± 66^c ng/100 mg wet tissue
same,affinity for σ1 receptors,σ1 receptors,high affinity ligands
same,"effect on LPS-induced reductions in striatal DA, DOPAC and HVA",LPS-treated mice [2]; 24 mg/kg pretreatment,significantly protected
same,Concentration DOPAC in the striatum,LPS-treated mice [2]; morphinan 12 (mg/kg) + LPS,70 ± 7 ng/100 mg wet tissue
same,Concentration HVA in the striatum,LPS-treated mice [2]; morphinan 12 (mg/kg) + LPS,83 ± 6 ng/100 mg wet tissue
same,Concentration DA in the striatum,"LPS-treated mice [2]; morphinan 12 (mg/kg) + LPS, mean ± S.E.M., 8 animals",482 ± 54 ng/100 mg wet tissue
same,Concentration DOPAC in the striatum,LPS-treated mice [2]; morphinan 24 (mg/kg) + LPS,86 ± 9^c ng/100 mg wet tissue
same,Concentration HVA in the striatum,LPS-treated mice [2]; morphinan 24 (mg/kg) + LPS,89 ± 7^c ng/100 mg wet tissue
same,Concentration DA in the striatum,LPS-treated mice [2]; morphinan 24 (mg/kg) + LPS,684 ± 56^c ng/100 mg wet tissue
same,effect on MA-induced FRA-IR in the striatum,MA-treated mice [3],apparently attenuated
same,effect on LPS-induced reduction in nigral TH-positive cells,LPS-treated mice [4],significantly attenuated the reduction in TH-positive cells
same,anticonvulsant effect,[5],exhibited anticonvulsant effects
same,effect on locomotor activity induced by low dose of cocaine,"cocaine-treated mice [6]; cocaine 5 mg/kg i.p. x 7 days, morphinan 15 or 30 mg/kg (DF 20 mg/kg) i.p.",consistently attenuated locomotor activity induced by a low dose of cocaine
same,effect on hyperactivity induced by high dose of cocaine,"cocaine-treated mice [6]; cocaine 20 mg/kg i.p. x 7 days, morphinan 15 or 30 mg/kg i.p. 30 min before",not uniform
same,effect on MA-induced reduction in locomotor activity,MA-treated mice [7],significantly prevented MA-induced reduction in locomotor activity
same,effect on MA-induced hyperlocomotion,MA-treated mice [8],consistently effective in attenuating hyperlocomotion induced by MA
same,locomotor pattern (tracings),"C57 BL/6 mice [9]; 40 mg/kg i.p. (PCP 5 mg/kg), FIG. 3",did not produce significant marginal activity
same,marginal activity (circling behaviour; absolute turn angular),"C57 BL/6 mice [9]; 20 or 40 mg/kg i.p./day x 7 (PCP 2.5 or 5 mg/kg), 3-min period, vs saline",did not significantly affect marginal activity
same,locomotor activity (total distance moved),"C57 BL/6 mice [9]; 20 or 40 mg/kg i.p./day x 7 days, 30 min after final treatment, vs saline",comparable to that with saline
same,effect on MPTP-induced reduction in locomotor activity,MPTP-treated mice [10],significantly prevented MPTP-induced reduction in locomotor activity
same,"effect on MPTP-induced reductions in striatal DA, DOPAC and HVA",MPTP-treated mice [11]; 24 mg/kg pretreatment,significantly protected
same,Concentration DOPAC in the striatum,MPTP-treated mice [11]; morphinan 12 (mg/kg) + MPTP,58 ± 6 ng/100 mg wet tissue
same,Concentration HVA in the striatum,MPTP-treated mice [11]; morphinan 12 (mg/kg) + MPTP,68 ± 9 ng/100 mg wet tissue
same,Concentration DA in the striatum,MPTP-treated mice [11]; morphinan 12 (mg/kg) + MPTP,489 ± 69 ng/100 mg wet tissue
same,Concentration DOPAC in the striatum,MPTP-treated mice [11]; morphinan 24 (mg/kg) + MPTP,78 ± 10^b ng/100 mg wet tissue
same,Concentration HVA in the striatum,MPTP-treated mice [11]; morphinan 24 (mg/kg) + MPTP,89 ± 7^b ng/100 mg wet tissue
same,Concentration DA in the striatum,MPTP-treated mice [11]; morphinan 24 (mg/kg) + MPTP,587 ± 76^b ng/100 mg wet tissue
same,affinity for NMDA receptor associated PCP sites,[12],very low affinities
same,effect on MA-induced behavioural sensitization,MA-treated mice [13],significantly reduced
same,effect on LPS-induced decrease in locomotor activity,LPS-treated mice [14],significantly prevented LPS-induced decrease in locomotor activity
same,effect on MPTP-induced decrease in nigral TH-positive cells,MPTP-treated mice [15],significantly attenuated the decrease in TH-positive cells
same,effect on MA-induced hyperthermia (rectal temperature),MA-treated mice [16],attenuated by all morphinans used in this study
same,conditioned place preference (CPP),C57 BL/6 mice [17],almost no CPP effects
same,effect on MA-induced decrease in nigral TH-positive cells,MA-treated mice [18],significantly attenuated the decrease in TH-positive cells
same,effect on cocaine-induced FRA-IR in the striatum,cocaine-treated mice [19],apparently attenuated
C[C@@](Cc1ccc(O)c(O)c1)(NN)C(=O)O [carbidopa],effect on LPS-induced loss in nigral TH-IR,LPS-treated mice [20],significantly attenuated
same,effect on MA-induced hyperthermia,MA-treated mice [21],significantly attenenuated
same,effect on MPTP-induced decrease in locomotor activity,MPTP-treated mice [22],appeared to increase
same,effect on mortality induced by LPS,LPS-treated mice [23],appears to attenuate mortality induced by LPS
same,effect on LPS-induced increase in F4/80-like immunoreactivity (microglia),LPS-treated mice [24],significantly attenuated
